Here are results for three molecules from patent publication US12036223B2, “Small molecule trail gene induction by normal and tumor cells as an anticancer therapy” (The Penn State Research Foundation, priority 2011, dated 2024).

The test system of data set [1] is MDA-MB-231 human breast cancer xenografts. Put plainly: MDA-MB-231 subcutaneous xenograft. The conditions noted are these: single doses, TIC10 i.p., TRAIL i.v.
Description: (§4) For subcutaneous xenografts, 4-6 week old female, athymic nu/nu mice (Charles River Laboratories) were inoculated with 1×10^6 cells (2.5×10^6 for T98G) of indicated cell lines in each rear flank as a 200 μL suspension of 1:1 Matrigel (BD):PBS. All intraperitoneal and intravenous injections were given at a total volume of 200 μL. […] Tumors were monitored using digital calipers at indicated time points. All subcutaneous tumors were allowed to establish for 1-4 weeks post-injection until reaching a volume of ˜125 mm^3 before treatment initiation. Relief of tumor burden was monitored for 3 weeks following disappearance of the tumor and confirmed by visual inspection after euthanasia.
(§5) Error bars indicate standard deviation (s.d.) of replicates. *P<0.05 and **P<0.005 between the indicated condition and control unless otherwise indicated.
Another data set relates to DLD-1 xenografts. Put plainly: DLD-1 subcutaneous xenograft. The conditions noted are these: single dose, 1 week post-treatment, TIC10 i.p., TRAIL i.v.
For data set [2] the following is noted: TRAIL protein / recombinant TRAIL, cited from earlier work.
For data set [3], the system named is SF767 intracranial tumors. Briefly: Overall survival of mice harboring SF767 intracranial tumors. Format: in vivo, athymic nude mice. To be noted: for Median Survival: TIC10 25 mg/kg oral, bevacizumab 10 mg/kg i.v. The protocol:
For intracranial xenografts, anesthetized athymic nude mice were implanted with 2×10^5 SF767 cells in a 25 μL suspension of serum- and antibiotic-free RPMI. The site of injection was a burr hole created 1 mm lateral to the midline of the skull and 1 mm anterior to the coronal suture. The injection was gradually administered over 5 minutes with a Hamilton syringe and the burr hole was sealed using bone wax. Tumor take was assessed by bioluminescent imaging 2 weeks following implantation. Bioluminescent imaging of tumors was carried out on an IVIS imaging system as described in Wang et al., 2003, PNAS 100:15095-15100.

In a further data set the test system is GBM cell lines. Briefly: Cell viability assays of GBM cell lines. The conditions noted are these: 72 hr post-treatment, p53-independent. Format: cell-based, human.
The test system of data set [4] is HFF cells. Briefly: Colony formation parallel experiment, HFF cells.
Description: Indicated cell lines were plated at 500 cells per well and treated the following day in fresh complete media after adherence. At 3 days post-treatment, the media was replaced with drug-free media and cells were propagated for 10 days with fresh media given once every 3 days. At the end of the 10 day period, cells were washed in PBS, fixed with methanol, and stained with Coomassie blue, rinsed, and dried for quantification.
Error bars indicate standard deviation (s.d.) of replicates. […] Error bars indicate standard deviation (s.d.) of replicates.
Data set [5] can be described thus: Pharmacokinetic analysis of TIC10 in plasma.
Description: HPLC analysis was performed by absorbance detection at 239 nm on an Agilent 1200 series system (Agilent, Santa Clara, CA) using an Eclipse XDB-C18 column (Agilent) and a 100 μL injection loop. Isocratic elution at 1 mL/minute was carried out in 0.1% trifluoroacetic acid in dH2O. An acetonitrile (ACN) gradient was carried out for elution as 15-20% ACN at 0-5 minutes, 20-23% for 5-12 minutes, 25% for 12-18 minutes. […] For all plasma samples, blood was obtained by terminal cardiac puncture of the left ventricle and collected into EDTA tubes (BD). Samples were centrifuged at 500 g for 10 minutes. Plasma was deproteinated by the adding 30 μL of perchloric acid to 100 μL of samples, vortexed for 15 seconds, centrifuged for 2 minutes, and the supernatant was immediately injected into the HPLC. AUC was normalized to an internal serum peak with a retention time of 8.1 minutes. AUC data versus time was fit with a two-compartment open model with first order elimination from central compartment using the equation AUC=Ae^−αt+Be^−βt where t=time and A and B are the extrapolated concentrations at the initiation of the two phases (distribution and elimination). Half-lives calculated as t1/2α=0.693/α and t1/2β=0.693/β. Other equations used for calculation include CL=dose/AUC0-∞ and Vd=dose/(AUC0-∞Xβ).
Error bars represent standard error mean of replicates.
In another data set the test system is SW480 xenograft. Briefly: SW480 subcutaneous xenograft. The format is in vivo, athymic nu/nu mice. To be noted: single dose 30 mg/kg, intraperitoneal or oral delivery.
In data set [6] the test system is intracecal HCT116 p53−/− tumors. The conditions noted are these: multi-dose regimen, once a week. The protocol: Intracecal implantation was performed as described in Cespedes, M. V., et al., Am J Pathol, 2007, 170(3): p. 1077-1085.
FIG. 37 is a graph showing percent of cohorts with implanted with intracecal HCT116 p53^−/− tumors with evident tumors at the primary and distal sites at endpoint (n=5).
FIG. 38 is a graph showing body weight of mice at endpoint. Error bars indicate s.d. of replicates.

Data set [7] can be described thus: Serum chemistry of C57/B6 mice treated weekly for 4 weeks.
Description: For CBC/differential and serum chemistry assays, 1 mL of blood was harvested from anesthetized mice by terminal cardiac puncture of the left ventricle. For serum chemistry, 500 μL, was placed into a microfuge tube and allowed to clot for 30 minutes at room temperature followed by centrifugation. Serum was removed, centrifuged again to remove any further clots, and serum was submitted for analysis. For CBC/differentials, 500 μL of blood was collected into EDTA tubes and analyzed.
Data set [8] deals with Eμ-Myc transgenic mice that spontaneously develop lymphoma. The conditions noted are these: weekly oral TIC10 25 mg/kg during weeks 9-12 of age. The protocol:
Near-infrared imaging of mice was carried out on a Pearl Impulse imaging system (LI-COR) following tail-vein injection of AngioSense® 680 (VisEn Medical, Woburn, MA) according to the manufacturer's protocols. 6 week old Eμ-myc mice were obtained from The Jackson Laboratory (B6.Cg-Tg(IghMyc)22Bri/J).
P value determined by log-rank test. For relative tumor volume plots, tumor size is expressed relative to the tumor size on day 0, which is defined as the day of treatment initiation.

Data set [9] deals with human TRAIL gene promoter in HCT116 Bax−/− cells. The conditions noted are these: first 504 base pairs of the TRAIL promoter.
Description: Bioluminescent high-throughput screening using the NCI diversity set II was carried out in HCT116 Bax^−/− cells that were stably cotransfected to express a firefly luciferase construct under transcriptional control of the first 504 base pairs of the TRAIL promoter upstream of the start of transcription of the human TRAIL gene. Compounds were tested at a working concentration of 20 nM, 200 nM, 500 nM, and 1 μM with bioluminescent assessment of transcriptional activity at 12, 24, 36, and 48 hours post-treatment.
For data set [10], the system named is freshly resected colon tumor cells from a human patient. The conditions noted are these: TIC10 0.6-20 μM. The protocol: (§1) For all flow cytometry analyses, floating and adherent cells were analyzed on a Coulter-Beckman Elite Epics cytometer. For surface TRAIL experiments, adherent cells were harvested by brief trypsinization, fixed in 4% paraformaldehyde in PBS for 20 min, incubated with an anti-TRAIL antibody for 2 hr (Abeam), washed and incubated with anti-rabbit Alexafluor 488 (Invitrogen) for 30 min, and analyzed. Cells were gated on forward and side scatter to eliminate debris and dead cells from the analysis. Surface TRAIL data is expressed as median fluorescence intensity relative to that of control samples unless indicated as otherwise. For Sub-G1 and cell cycle profile experiments, all cells were pelleted and ethanol fixed followed by staining with propidium iodide (Sigma) in the presence of RNAse. Cell viability assays were carried out in 96-well black-walled clear-bottom plates using CellTiter-Glo® (Promega) according to the manufacturer's protocols. Imaging and quantification of these assays were performed on an IVIS imaging system (Xenogen).
(§2) Error bars indicate s.d. of replicates.

In a further data set the test system is HCT116 p53−/− cells. Put plainly: Sub-G1 / cell cycle profile, HCT116 p53−/− cells. Format: cell-based, human. The conditions noted are these: 5 μM, 72 hr. As to the method:
as §1

Data set [11] has as its system pAkt and pERK in HCT116 p53−/− cells. Put plainly: Western blot analysis of pAkt and pERK. The format is cell-based, human. The conditions noted are these: TIC10 2.5, 5, 10 μM, 72 hr, dose-dependent. As to the method: Western blot analysis was conducted as described in Wang, W. et al., PNAS 103, 11003-11008, 2006, using NuPAGE 4-12% Bis-Tris and visualized using Supersignal West Femto (Thermo Scientific) and X-ray film. Nuclear and cytoplasmic extracts were prepared using a cytoplasmic lysis buffer (10 mM HEPES, 10 mM KCl, and 2 mM MgCl2, 1 mM DTT) followed by a nuclear lysis buffer (20 mM HEPES, 420 mM NaCl, 1.5 mM MgCl2, 250 μM EDTA, 25% glycerol). For all lysis buffers, fresh protease inhibitor (Roche) and 1 mM sodium orthovanadate was added immediately prior to use.
TIC10-induced changes in regulators of Foxo3a such as IKK, Akt, and ERK were determined.
FIG. 61 is a graph showing time course of protein expression levels of TIC10-induced effects determined by densitometry of Western blots from replicate experiments as in FIG. 60 (n=3). Data is express relative to the control sample for each time point and normalized to Ran. TRAIL was quantified by flow cytometry as a parallel experiment (n=3).
In general terms: In western blotting, separated proteins are transferred to a membrane and probed.

The test system of the next data set is HCT116 p53−/− xenograft. Briefly: HCT116 p53−/− subcutaneous xenograft. The format is in vivo, athymic nu/nu mice. The conditions noted are these: 3 doses on day 0, 3 and 6, TIC10 i.p.
For a further data set, the system named is cancer cell lines. Briefly: Colony formation assays, cancer cell lines. The format is cell-based, human. The conditions noted are these: 10 μM, 72 hr.
Data set [12] concerns HFF cells. To be noted: 5 μM, 72 hr. As to the method:
as §1

In data set [13] the test system is freshly isolated GBM cells. To be noted: temozolomide-resistant, previously irradiated, 72 hr. The protocol: as §1
For data set [14], the system named is subcutaneous T98G xenografts. Briefly: T98G subcutaneous xenograft. Format: in vivo, athymic nu/nu mice. To be noted: single oral dose, 30 mg/kg. The protocol:
TIC10 was tested in preclinical models of GBM as a monoagent and in combination with bevacizumab.

The subject of data set [15] is TRAIL mRNA in HCT116 p53−/− cells. Briefly: RT-qPCR analysis of TRAIL mRNA levels. To be noted: 48 hr. The format is cell-based, human.
Description: Total RNA was extracted using RNeasy Minikit (Qiagen) by following the manufacturer's instructions. cDNA was generated using SuperScript II (Invitrogen) with 1 μg of RNA and oligodT. […] PCR amplification was performed with the Applied Biosystems 7900HT Fast Real-time Detection System. Samples were standardized to 10 ng/μl and twenty ng of cDNA per sample was then utilized as a template for real-time PCR using a SYBR Green Master Mix (Qiagen Corp, USA). Samples were normalized to GAPDH used under identical conditions. Quantitation used the 2ΔΔCt method of crossing thresholds described in Livak et al., 2001, Methods. […] Reactions were performed in 384 well optical plates in a 7900HT instrument (Applied Biosystems), with 10 ul reaction volumes. Data analysis used the ABI PRISM 7900 Sequence Detection System 2.2 software. To exclude the possibility of genomic DNA contamination, control PCR reactions with no cDNA template and No-RT control samples were also performed for each gene-specific primer set. Quadruplicates of each PCR reaction were performed and the resultant data was averaged.
Data set [16] relates to surface TRAIL in a panel of cancer cells. Put plainly: Surface TRAIL by flow cytometry in cancer cell lines. Format: cell-based, human. To be noted: 72 hr, p53-independent. In general terms: Flow cytometry measures light scatter and fluorescence of single cells or particles in a stream.
Data set [17] relates to TRAIL. As to the method:
(§3) Tissue analyses. […] Serum was then removed following centrifugation for 5 minutes.
ELISA for TRAIL was carried out using the Quantikine® TRAIL/TNFSF10 kit according to the manufacturer's protocol (DTRL00, R&D systems, Minneapolis, MN). […] Absorbances were measured with a DTX 880 plate reader (Beckman Coulter).
as §2

A further data set concerns HCT116 cells. Put plainly: Cell viability in HCT116 cells after 1 hr pre-incubation of agent at indicated temperatures. Format: cell-based, human. To be noted: TIC10 5 μM, 1 hr pre-incubation at indicated temperatures, 72 hr.
The test system of the next data set is HCT116 xenograft. Put plainly: HCT116 xenograft, single oral dose titration. To be noted: 25 mg/kg. Format: in vivo, athymic nu/nu mice.
The nature of data set [18]: Body weight and liver histology of treated mice. To be noted: TIC10 100 mg/kg i.p. single dose; 25 mg/kg oral weekly for 4 weeks.
Description: Tissue analyses. Mice were humanely sacrificed at indicated time points and excised normal tissue or tumors were fixed in 4% paraformaldehyde/PBS overnight at 4° C. If plasma samples were desired, 500 μL of blood was collected by terminal cardiac puncture under anesthesia in EDTA-Vacutainer tubes (BD). Serum samples were collected in a similar fashion but in microcentrifuge tubes followed by a 30 minute incubation at room temperature to allow for clotting. Serum was then removed following centrifugation for 5 minutes. Paraffin-embedded blocks, serial section slides, and hematoxylin and eosin staining were prepared according to standard procedures. TUNEL staining was performed using the ApopTag® Peroxidase In Situ Apoptosis Detection Kit (Millipore). For IHC analysis, slides were dewaxed in xylene and hydrated in a decreasing gradient of ethanol. Antigen retrieval was carried out by boiling in 10 mM citric acid (pH 6.0) for 6 min. Samples were blocked with streptavidin and biotin blocking solutions and goat serum (Vector Laboratories). Primary antibodies were incubated overnight at 4° C. in a humidity chamber. Incubation with biotinylated secondary antibody and DAB deposition was carried out according the manufacturer's protocol (Vector Laboratories DAB Substrate Kit for Peroxidase). […] Images were recorded on an Axioskop microscope using QCapture software (QImaging).
The nature of data set [19]: Blood-brain barrier crossing. To be noted: in vivo.
For data set [20], the system named is TRAIL. The conditions noted are these: TIC10 100 mg/kg i.v. As to the method:
as §3

Where [21] appears, read: single dose at 2 weeks post-implantation.
The mark [22] stands for this setting: 25 mg/kg intravenous, plasma, two-compartment model.
[23] abbreviates: female, C57/B6, mouse, in vivo, iv, 25 mg/kg.
Where [24] appears, read: serum, TIC10 25 mg/kg oral weekly for 4 weeks.
The mark [25] stands for this setting: tumor-free mice, TIC10 100 mg/kg i.v.

Like-named read-outs stand apart in the source and are kept apart here.

Description for DLD-1 xenografts: as §4
Description for GBM cell lines: For all flow cytometry analyses, floating and adherent cells were analyzed on a Coulter-Beckman Elite Epics cytometer. […] Cells were gated on forward and side scatter to eliminate debris and dead cells from the analysis. […] Cell viability assays were carried out in 96-well black-walled clear-bottom plates using CellTiter-Glo® (Promega) according to the manufacturer's protocols. Imaging and quantification of these assays were performed on an IVIS imaging system (Xenogen).
Description for HCT116 p53−/− xenograft: as §4, §5
Description for HCT116 xenograft: as §4, §5
Description for SW480 xenograft: as §4

Consider “TRAIL: Purified, recombinant TRAIL (TNF-related apoptosis-inducing ligand; Apo2L)”, for which the effect on tumor result (in [1]; in the data set with DLD-1 xenografts) was “progressed” each time. The serum half-life in data set [2] was 20 to 30 min; in [2] (listed as recombinant TRAIL) it was roughly 30 min.
As for bevacizumab [reference compound], the “Median Survival” value in [3] (setting [21]) was determined as 70 days.
The term AUC(0-inf) denotes total exposure, with the tail of the curve extrapolated. High values mean more exposure, low ones less exposure. Broadly, the Cmax is the highest concentration seen after dosing. The term Tmax denotes the time from dosing to the highest level. A word on the Vd: it is a proportionality between amount in the body and measured concentration, not a real space. Lower therefore signals confinement near the circulation. As usually defined, the clearance is the rate of elimination divided by the concentration. A high value points to efficient removal. With `Cc1ccccc1CN1C(=O)C2=C(CCN(Cc3ccccc3)C2)N2CCN=C12` [TIC10], in data set [3] (setting [21]), the “Median Survival” value is 74 days. For the same molecule, the “change in overall survival” value in [3] (single dose, intracranial xenograft of human GBM) is given as “doubled”. Besides, the “ΔMedian Survival” value in data set [3] (versus control cohort, single dose at 2 weeks post-implantation) was determined as 46 days. For the same molecule, in the data set on GBM cell lines, the GI50 result was “low micromolar range”. For the same molecule, the “effect on normal fibroblasts in colony formation experiment” value in the data set with HFF cells [4] was “sparing normal fibroblasts”. In [5] (25 mg/kg intravenous, plasma), this molecule showed a t1/2α of 2.82 min and a t1/2β of 385 min. In data set [5] (setting [22]), this molecule had a α of 14.9 h⁻¹ and a β of 0.108 h⁻¹. Besides, in [5] (setting [23]), the area under the curve AUC(0-inf) was found to be 63.9 µM·h, the Cmax is 44.2 µM, the Tmax was found to be 1.2 min and the Vd came out at 9.39 L/kg. For the same molecule, the clearance in [5] (setting [23]) was 16.8 mL/min/kg. In addition, in data set [1], the effect on tumor entry is given as “regression”. Further, in the data set with SW480 xenograft, the effect on tumor result was “sustained regression”. For the same molecule, the “tolerability / body weight at endpoint” value in data set [6] was “well tolerated”. Moreover, the “changes in a panel of serum chemistry markers” value in [7] (oral TIC10 25 mg/kg weekly for 4 weeks, immuno-competent mice) was “did not cause any changes”. In data set [7] (setting [24]), this molecule showed an Albumin of 2.9 g/dL, an Alkaline phosphate of 112 ± 12 U/L, a Blood urea nitrogen of 33.75 ± 7.3 mg/dL and a Chloride of 104 mM. In data set [7] (setting [24]), the Creatinine was 0.15 ± .06 mg/dL, the Lactate dehyrogenase is given as 287.5 ± 125 U/L, the Potassium is 7.325 ± 3.2 mM and the Sodium stood at 154.5 ± 5.2 mM. In addition, in data set [7] (setting [24]), the “Total Protein” value is 4.97 ± .61 g/dL and the Total bilirubin was determined as 2.725 ± 2.4 mg/dL. In [8], this molecule came in with a prolongation of survival of 4 weeks. Moreover, the “TRAIL promoter luciferase reporter activity” value in [9] is on record as “induced TRAIL promoter-dependent transcriptional activity”. In addition, the effect on tumor entry in the data set on DLD-1 xenografts was “tumor stasis”. For the same molecule, the “cytotoxicity in primary colon cancer cells” value in [10] is on record as “potent cytotoxic effects”. In the data set on HCT116 p53−/− cells, the “sub-G1 DNA content” value is given as “induced sub-G1 DNA content”. In data set [11], the “pAkt and pERK levels” value is reported as “abolished”. Moreover, the effect on tumor entry with HCT116 p53−/− xenograft is “tumor regression”. In the data set on cancer cell lines, the clonogenic survival entry was “decreased the clonogenic survival”. Also, in the data set with HFF cells [12], the “cell cycle profile of normal fibroblasts” value is “without altering the cell cycle profiles”. The “cytotoxicity in freshly isolated GBM cells” value in [13] was “cytotoxic effects”. The effect on tumor entry in data set [14] is given as “sustained regression”. The “TRAIL mRNA levels” value in [15] is listed as “dose-dependent increase”. Also, the “TRAIL protein localized to the cell surface” value in [16] is “dose-dependent increase”. For the same molecule, the “duration of sustained serum levels of secreted TRAIL” value in the data set with TRAIL [17] (after a single dose of TIC10) is 3 to 4 days. In addition, in the data set on TRAIL [17] (setting [25]), the “duration of elevated serum levels of TRAIL” value is reported as “greater than 72 hours” and the “time at which serum TRAIL induced by TIC10 was detected following administration” value stood at 2 h. For the same molecule, the “thermal stability of cytotoxic activity” value with HCT116 cells is “thermally stable”. Also, the effect on tumor result in the data set with HCT116 xenograft is on record as “sustained anti-tumor efficacy”. In addition, in data set [18], the “effects on body weight or liver histology” value is given as “no adverse effects on body weight or liver histology”. For the same molecule, in data set [19], the blood-brain barrier crossing entry was “crosses the blood-brain barrier”. Moreover, in the data set on TRAIL [20], the “TRAIL protein in normal tissues (IHC)” value is “upregulated at the protein level in the brain, kidney, and spleen”; the “toxicity in normal tissues by histology and TUNEL staining” value is given as “without apparent toxicity”.
